Reference: paper PMC10800100, “DoAP2/ERF89 activated the terpene synthase gene DoPAES in Dendrobium officinale and participated in the synthesis of β-patchoulene” (PeerJ, 2024)

Target: T1, DoPAES (Dendrobium catenatum, UniProt A0A975TQG2)
T1 sequence (A0A975TQG2 1-550): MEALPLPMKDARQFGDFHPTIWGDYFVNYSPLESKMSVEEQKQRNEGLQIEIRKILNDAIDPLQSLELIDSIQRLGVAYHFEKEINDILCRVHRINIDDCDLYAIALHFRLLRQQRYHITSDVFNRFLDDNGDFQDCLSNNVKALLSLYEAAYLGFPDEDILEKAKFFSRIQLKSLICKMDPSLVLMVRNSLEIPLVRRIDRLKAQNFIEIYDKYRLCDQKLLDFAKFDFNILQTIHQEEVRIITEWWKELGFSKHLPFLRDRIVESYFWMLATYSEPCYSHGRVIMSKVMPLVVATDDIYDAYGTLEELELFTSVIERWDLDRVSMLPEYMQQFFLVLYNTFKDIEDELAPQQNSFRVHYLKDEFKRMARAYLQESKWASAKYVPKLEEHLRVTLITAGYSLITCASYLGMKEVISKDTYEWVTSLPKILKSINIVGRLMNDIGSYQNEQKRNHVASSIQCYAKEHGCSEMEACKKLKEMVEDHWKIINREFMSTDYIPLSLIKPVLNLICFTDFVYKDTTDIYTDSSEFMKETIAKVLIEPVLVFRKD
Assay: HS-SPME-GC-MS of products formed by crude recombinant protein
Assay type: biochemical
Conditions: 50 mmol/L Tris pH 7.5, 10 mmol/L MgCl2, 10 μmol/L MnCl2, 30 °C, 30 min

**Q.** `CC(C)=CCC/C(C)=C/CC/C(C)=C/COP(=O)(O)OP(=O)(O)O` [FPP] was tested. Which “HS-SPME-GC-MS of products formed by crude recombinant protein” value did it give?
**A.** Its value is “The products were then detected by GC-MS after adding substrate FPP”.
